Assay results taken from ChEMBL document CHEMBL1201862, “PubChem BioAssay data set” (2004).
Calls of active or inactive are those of the source.

Columns and labels:
Cytochrome P450 1A2 = target: T1, Cytochrome P450 1A2 (Homo sapiens, UniProt P05177);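 note: PubChem cytochrome P450 panel assay, CYP1A2 panel member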
T1 sequence (P05177 whole entry): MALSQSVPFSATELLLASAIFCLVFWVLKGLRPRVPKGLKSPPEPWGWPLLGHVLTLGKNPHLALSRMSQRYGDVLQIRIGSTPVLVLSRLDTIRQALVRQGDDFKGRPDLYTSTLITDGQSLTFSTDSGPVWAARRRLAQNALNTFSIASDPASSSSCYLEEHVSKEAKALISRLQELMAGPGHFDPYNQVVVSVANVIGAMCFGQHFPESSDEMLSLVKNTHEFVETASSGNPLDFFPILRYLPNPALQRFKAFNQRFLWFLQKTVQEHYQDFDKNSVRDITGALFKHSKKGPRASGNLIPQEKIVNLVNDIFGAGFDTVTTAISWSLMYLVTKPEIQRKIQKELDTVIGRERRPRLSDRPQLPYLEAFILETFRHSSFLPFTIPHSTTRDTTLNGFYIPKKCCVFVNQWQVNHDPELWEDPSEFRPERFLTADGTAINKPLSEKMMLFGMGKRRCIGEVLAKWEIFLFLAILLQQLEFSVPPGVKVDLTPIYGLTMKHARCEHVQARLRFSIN

Cytochrome P450 2C9 = Cytochrome P450 2C9 (Homo sapiens, UniProt P11712)
[1] = M. tuberculosis H37Rv growth inhibitors, H37Rv strain (AID 1626); assay type: functional
Fatty acid synthase [2] = target: T2, Fatty acid synthase (Homo sapiens, UniProt P49327); experiment: inhibition of human FAS-TE enzyme activity – biochemical, endpoint fluorescence intensity, uHTS hits, dose response (AID 624327); assay type: functional;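 note: fluorescence from hydrolysis of an O-methyl fluorescein acyl ester substrate by the enzyme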
Fatty acid synthase [3] = target: T2, Fatty acid synthase; experiment: inhibition of human FAS-TE enzyme activity – biochemical, kinetic fluorescence intensity, dose response (AID 624326); assay type: functional;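 note: rate of fluorescence rise from hydrolysis of a fluorogenic O-methyl fluorescein ester substrate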
[4] = target: T3, Calpain-2 catalytic subunit (Sus scrofa, UniProt P43367); experiment: m-calpain protease blockers, concentration series – biochemical, fluorogenic peptide substrate, dose response (AID 1420); assay type: functional
T3 sequence (P43367 whole entry): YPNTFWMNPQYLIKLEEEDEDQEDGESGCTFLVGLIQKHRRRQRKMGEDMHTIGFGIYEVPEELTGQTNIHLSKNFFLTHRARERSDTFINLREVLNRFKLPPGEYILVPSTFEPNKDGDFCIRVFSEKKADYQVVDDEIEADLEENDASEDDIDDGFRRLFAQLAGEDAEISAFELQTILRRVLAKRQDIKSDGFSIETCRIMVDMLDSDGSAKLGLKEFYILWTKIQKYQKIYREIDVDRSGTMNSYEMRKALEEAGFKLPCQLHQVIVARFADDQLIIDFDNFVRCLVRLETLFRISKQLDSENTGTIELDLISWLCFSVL

[5] = target: T4, Short transient receptor potential channel 4 (Mus musculus, UniProt Q9QUQ5); experiment: block of DAMGO-driven TRPC4 calcium entry – cell-based, HEK293 TRPC4/mu-opioid, Fluo-4 calcium, dose response (AID 434942); assay type: functional;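 note: potency of inhibitors blocking the TRPC4 calcium response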
T4 sequence (Q9QUQ5 whole entry): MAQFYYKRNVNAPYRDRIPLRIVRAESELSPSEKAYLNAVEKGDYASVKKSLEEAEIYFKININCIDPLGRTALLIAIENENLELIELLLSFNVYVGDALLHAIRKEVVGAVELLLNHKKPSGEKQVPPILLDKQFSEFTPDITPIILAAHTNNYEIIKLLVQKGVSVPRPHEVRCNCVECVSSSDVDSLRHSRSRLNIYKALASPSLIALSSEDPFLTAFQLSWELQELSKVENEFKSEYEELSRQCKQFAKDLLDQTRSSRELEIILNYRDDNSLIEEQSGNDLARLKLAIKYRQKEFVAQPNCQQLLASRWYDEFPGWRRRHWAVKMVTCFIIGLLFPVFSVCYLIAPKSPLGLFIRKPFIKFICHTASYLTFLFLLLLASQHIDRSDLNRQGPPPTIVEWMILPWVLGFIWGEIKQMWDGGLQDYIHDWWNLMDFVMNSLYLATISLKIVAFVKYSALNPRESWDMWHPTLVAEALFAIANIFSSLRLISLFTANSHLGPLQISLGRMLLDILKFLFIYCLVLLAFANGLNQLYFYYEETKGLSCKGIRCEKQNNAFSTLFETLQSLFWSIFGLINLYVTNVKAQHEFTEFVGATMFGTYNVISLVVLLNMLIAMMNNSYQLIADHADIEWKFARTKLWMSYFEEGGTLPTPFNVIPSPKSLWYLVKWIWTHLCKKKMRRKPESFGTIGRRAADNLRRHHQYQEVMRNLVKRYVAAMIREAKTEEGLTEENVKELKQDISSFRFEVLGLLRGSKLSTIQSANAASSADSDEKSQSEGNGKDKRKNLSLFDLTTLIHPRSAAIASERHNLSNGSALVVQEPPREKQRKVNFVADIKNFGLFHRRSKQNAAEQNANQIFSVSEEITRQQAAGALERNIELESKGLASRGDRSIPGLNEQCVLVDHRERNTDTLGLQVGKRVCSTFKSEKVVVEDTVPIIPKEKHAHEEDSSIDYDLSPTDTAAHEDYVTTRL

[6] = Luminescence Cell-Based Dose Response HTS to Identify Inhibitors of 5'UTR Stem-Loop Driven Prion Protein mRNA Translation in H4 Neuroglioblastoma Cells. [Related pubchem assays: 1827 (Project Summary), 1813 (Primary HTS)]; assay type: functional
[7] = luciferase reporter signal suppression in cells – H4 neuroglioma cells, luminescence, dose response (AID 1990); assay type: functional, cell-based
[8] = alpha-synuclein stem-loop luciferase translation blockers – H4 neuroglioma cells, luminescence, confirmation (AID 1988); assay type: functional, cell-based
Vero = experiment: cells; assay type: functional; settings: Chlorocebus sabaeus
Cytochrome P450 3A4 = Cytochrome P450 3A4 (Homo sapiens, UniProt P08684);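 note: CYP3A4 tested as one member of a cytochrome P450 panel screen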
Cytochrome P450 2C19 = Cytochrome P450 2C19 (Homo sapiens, UniProt P33261); experiment: Cytochrome panel assay with activity outcomes. Panel member name: p450-cyp2c19 Compounds with AC50 equal or less than 10 uM are considered active; assay type: functional; settings: read-out: AC50
[9] = HIV-1 AD8 envelope cell-cell fusion blockers – cherry-pick, dose response (AID 652062); assay type: functional, cell-based;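 note: luciferase signal from cell-cell fusion driven by HIV-1 clade B AD8 Env; potency is for inhibitors of fusion seen as a drop in luminescence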
INS1 = experiment: INS-1E survival protection against cytokine death – cell-based, luminescence, retest, dose response (AID 449756); assay type: functional; settings: Rattus norvegicus;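 note: cell death triggered by IL-1 beta plus TNF-alpha plus IFN-gamma mixture; protective hits raise ATP signal compared with cytokine alone wells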
Escherichia coli = experiment: microbe, parasite or virus in culture
[10] = target: DNA dC->dU-editing enzyme APOBEC-3A (Homo sapiens, UniProt P31941); experiment: Dose Response confirmation of small molecule APOBEC3A DNA Deaminase Inhibitors via a fluorescence-based single-stranded DNA deaminase assay. [Related pubchem assays (depositor defined):AID493011, AID493024]; assay type: functional
[11] = NIH3T3 cell viability loss – ATP luminescence, mouse fibroblasts, counter-screen, dose response (AID 2010); assay type: functional, cell-based;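 note: cells exposed to compound for about 90 hours before reading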
[12] = Trypanosoma cruzi growth suppression in host cells – NIH3T3 host cells, beta-gal luminescence, confirmation (AID 2044); assay type: functional, cell-based;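 note: intracellular parasites grown in NIH/3T3 mouse fibroblasts as host cells; luminescent beta-galactosidase reporter signal from transgenic T. cruzi replicating inside host cells; inhibitors lower the luminescence signal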
[13] = target: DNA dC->dU-editing enzyme APOBEC-3G (Homo sapiens, UniProt Q9HC16); assay type: functional;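 note: Dose-response counterscreen measuring inhibition of APOBEC3G DNA deaminase activity, run while confirming APOBEC3A inhibitors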
[14] = target: T5, Carboxy-terminal domain RNA polymerase II polypeptide A small phosphatase 1 (Homo sapiens, UniProt Q9GZU7); experiment: CTDSP1 inhibitors, concentration-response, biochemical, absorbance readout, ultra-high-throughput screen actives (AID 540297); assay type: functional
T5 sequence (Q9GZU7 whole entry): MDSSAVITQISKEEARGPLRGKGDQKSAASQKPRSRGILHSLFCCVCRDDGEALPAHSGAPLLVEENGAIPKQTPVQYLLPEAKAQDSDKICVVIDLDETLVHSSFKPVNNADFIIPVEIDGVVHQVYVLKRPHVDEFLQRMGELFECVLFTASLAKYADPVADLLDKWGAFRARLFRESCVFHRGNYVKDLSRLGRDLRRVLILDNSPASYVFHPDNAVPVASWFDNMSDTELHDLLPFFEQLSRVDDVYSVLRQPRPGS

T2 sequence (P49327 whole entry): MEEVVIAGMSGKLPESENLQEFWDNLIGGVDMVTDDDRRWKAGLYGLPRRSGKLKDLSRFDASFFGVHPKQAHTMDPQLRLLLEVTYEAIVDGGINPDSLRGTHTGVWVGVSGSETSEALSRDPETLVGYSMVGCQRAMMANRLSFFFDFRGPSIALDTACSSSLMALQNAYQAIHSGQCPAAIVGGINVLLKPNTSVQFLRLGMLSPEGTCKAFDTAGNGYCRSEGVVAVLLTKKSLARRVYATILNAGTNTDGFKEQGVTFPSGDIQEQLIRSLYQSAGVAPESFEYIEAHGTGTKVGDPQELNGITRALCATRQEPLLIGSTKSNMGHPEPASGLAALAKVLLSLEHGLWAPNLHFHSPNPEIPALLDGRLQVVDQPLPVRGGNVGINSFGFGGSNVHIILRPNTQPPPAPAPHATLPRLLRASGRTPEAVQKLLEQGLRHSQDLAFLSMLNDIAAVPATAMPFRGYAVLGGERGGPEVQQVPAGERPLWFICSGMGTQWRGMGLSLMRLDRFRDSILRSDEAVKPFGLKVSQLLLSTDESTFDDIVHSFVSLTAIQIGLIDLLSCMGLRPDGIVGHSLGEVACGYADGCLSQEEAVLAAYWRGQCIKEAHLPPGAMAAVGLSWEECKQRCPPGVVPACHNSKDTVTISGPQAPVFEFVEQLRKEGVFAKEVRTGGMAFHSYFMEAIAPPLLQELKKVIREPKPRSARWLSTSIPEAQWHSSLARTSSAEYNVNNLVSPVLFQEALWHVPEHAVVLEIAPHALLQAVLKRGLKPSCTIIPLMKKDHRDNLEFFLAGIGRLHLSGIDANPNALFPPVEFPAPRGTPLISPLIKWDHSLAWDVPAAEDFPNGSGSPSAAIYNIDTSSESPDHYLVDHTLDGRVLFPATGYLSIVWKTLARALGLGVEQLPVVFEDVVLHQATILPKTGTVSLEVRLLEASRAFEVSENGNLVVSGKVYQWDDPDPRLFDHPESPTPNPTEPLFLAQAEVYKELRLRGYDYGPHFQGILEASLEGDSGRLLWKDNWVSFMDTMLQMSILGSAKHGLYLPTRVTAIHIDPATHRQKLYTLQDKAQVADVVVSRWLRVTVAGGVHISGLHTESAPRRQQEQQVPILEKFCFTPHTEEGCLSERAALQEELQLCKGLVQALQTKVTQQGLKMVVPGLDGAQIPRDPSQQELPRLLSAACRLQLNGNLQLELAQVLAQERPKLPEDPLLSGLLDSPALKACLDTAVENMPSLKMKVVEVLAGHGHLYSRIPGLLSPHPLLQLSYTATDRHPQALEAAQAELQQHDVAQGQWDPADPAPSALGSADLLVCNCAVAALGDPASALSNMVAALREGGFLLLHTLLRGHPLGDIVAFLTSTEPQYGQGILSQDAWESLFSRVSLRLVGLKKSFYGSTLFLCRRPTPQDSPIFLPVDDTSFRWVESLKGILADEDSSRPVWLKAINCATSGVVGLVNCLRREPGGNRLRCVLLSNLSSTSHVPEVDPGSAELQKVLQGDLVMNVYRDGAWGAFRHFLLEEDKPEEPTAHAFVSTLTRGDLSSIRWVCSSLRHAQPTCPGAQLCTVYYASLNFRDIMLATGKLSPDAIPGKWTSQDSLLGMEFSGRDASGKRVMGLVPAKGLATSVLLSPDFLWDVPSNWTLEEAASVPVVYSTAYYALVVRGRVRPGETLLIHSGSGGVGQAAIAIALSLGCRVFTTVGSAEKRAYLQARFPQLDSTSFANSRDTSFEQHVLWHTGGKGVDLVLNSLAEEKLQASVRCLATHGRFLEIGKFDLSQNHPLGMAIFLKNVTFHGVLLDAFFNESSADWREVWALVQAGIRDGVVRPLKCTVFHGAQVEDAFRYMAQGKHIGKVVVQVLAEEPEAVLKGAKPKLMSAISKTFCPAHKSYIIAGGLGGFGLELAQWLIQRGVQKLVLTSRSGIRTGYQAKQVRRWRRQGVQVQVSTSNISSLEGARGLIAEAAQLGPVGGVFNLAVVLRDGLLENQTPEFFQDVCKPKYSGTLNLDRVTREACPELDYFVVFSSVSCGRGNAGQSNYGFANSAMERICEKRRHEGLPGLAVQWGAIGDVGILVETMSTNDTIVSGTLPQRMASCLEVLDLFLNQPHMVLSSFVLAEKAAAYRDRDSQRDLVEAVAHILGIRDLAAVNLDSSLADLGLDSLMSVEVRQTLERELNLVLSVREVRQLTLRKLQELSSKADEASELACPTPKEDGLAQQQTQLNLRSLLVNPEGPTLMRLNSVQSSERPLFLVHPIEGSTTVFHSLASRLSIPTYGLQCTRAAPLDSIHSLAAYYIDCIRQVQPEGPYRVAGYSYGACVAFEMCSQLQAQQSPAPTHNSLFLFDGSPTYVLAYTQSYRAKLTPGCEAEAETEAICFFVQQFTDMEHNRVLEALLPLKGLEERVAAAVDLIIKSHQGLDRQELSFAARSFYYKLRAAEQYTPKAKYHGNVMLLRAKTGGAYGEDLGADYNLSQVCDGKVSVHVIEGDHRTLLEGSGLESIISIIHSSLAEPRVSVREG
Cytochrome P450 2C9, sequence (P11712 whole entry): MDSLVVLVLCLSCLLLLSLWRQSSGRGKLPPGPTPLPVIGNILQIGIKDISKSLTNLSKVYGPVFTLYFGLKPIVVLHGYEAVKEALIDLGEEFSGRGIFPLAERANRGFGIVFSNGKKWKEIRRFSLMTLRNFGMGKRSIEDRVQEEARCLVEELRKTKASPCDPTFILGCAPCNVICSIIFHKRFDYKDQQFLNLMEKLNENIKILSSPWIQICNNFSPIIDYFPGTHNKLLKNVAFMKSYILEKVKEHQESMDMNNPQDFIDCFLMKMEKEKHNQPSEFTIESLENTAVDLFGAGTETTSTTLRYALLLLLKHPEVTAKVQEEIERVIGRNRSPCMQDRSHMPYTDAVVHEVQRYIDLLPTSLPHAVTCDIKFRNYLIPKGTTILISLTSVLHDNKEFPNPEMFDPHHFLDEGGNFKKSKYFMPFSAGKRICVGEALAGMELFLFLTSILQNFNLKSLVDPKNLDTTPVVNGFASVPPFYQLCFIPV
DNA dC->dU-editing enzyme APOBEC-3G, sequence (Q9HC16 whole entry, the tested form may be a part): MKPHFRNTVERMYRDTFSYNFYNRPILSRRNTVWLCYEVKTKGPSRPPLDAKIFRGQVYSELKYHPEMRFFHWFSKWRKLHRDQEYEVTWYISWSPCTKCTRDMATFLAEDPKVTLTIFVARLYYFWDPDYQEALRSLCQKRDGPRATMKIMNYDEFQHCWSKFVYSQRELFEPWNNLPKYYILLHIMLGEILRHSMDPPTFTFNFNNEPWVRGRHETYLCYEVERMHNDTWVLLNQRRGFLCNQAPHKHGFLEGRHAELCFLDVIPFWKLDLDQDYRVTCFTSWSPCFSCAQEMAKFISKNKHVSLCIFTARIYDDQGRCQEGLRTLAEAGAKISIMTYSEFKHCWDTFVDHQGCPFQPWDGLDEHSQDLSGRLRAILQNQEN
DNA dC->dU-editing enzyme APOBEC-3A, sequence (P31941 whole entry): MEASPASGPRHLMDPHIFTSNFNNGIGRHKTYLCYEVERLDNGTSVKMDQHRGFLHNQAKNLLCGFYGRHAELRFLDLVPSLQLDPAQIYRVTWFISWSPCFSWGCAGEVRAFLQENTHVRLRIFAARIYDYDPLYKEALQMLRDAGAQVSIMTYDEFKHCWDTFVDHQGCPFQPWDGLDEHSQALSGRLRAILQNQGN
Cytochrome P450 2C19, sequence (P33261 whole entry, the tested form may be a part): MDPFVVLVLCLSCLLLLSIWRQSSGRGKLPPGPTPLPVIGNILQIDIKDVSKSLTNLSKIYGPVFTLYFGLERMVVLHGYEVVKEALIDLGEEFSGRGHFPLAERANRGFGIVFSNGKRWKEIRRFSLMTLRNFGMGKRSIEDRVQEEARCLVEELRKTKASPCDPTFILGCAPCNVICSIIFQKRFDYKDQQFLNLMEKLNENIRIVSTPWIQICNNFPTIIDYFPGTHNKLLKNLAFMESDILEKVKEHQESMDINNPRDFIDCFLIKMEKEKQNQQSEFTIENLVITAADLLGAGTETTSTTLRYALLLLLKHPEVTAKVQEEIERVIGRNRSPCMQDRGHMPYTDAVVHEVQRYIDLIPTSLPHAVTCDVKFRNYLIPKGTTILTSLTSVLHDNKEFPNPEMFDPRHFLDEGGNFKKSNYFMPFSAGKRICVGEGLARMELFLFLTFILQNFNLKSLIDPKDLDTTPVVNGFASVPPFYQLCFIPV
Cytochrome P450 3A4, sequence (P08684 whole entry): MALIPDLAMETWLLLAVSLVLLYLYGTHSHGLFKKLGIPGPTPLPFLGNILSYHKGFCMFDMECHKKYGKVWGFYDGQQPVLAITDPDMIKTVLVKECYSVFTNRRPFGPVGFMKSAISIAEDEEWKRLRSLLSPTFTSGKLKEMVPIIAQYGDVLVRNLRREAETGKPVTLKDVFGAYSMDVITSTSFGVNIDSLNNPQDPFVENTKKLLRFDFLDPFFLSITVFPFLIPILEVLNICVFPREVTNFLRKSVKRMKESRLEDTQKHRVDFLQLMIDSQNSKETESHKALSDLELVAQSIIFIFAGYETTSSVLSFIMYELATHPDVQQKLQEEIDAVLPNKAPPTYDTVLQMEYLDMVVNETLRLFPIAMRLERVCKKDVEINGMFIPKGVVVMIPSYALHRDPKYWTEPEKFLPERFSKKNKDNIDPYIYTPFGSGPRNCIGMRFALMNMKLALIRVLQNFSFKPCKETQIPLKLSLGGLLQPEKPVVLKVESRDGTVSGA

Question: Which AC50 (Cytochrome P450 1A2) does the source give for Cc1cc(=O)c2ccccc2[nH]1 here?
Answer: 25.1 µM (inconclusive)

Question: And the AC50 (Cytochrome P450 2C9)?
Answer: inconclusive

Question: With COc1ccc(N=C2C(=O)Nc3c(C)cccc32)cc1 as the molecule, how does the IC50 [1] read?
Answer: > 100 µM (active)

Question: With O=[N+]([O-])c1cccc(OCCN2CCC(Cc3ccccc3)CC2)c1 as the molecule, how does the IC50 (Fatty acid synthase [2]) read?
Answer: 5.3 µM (active)

Question: And the IC50 (Fatty acid synthase [3])?
Answer: 4.72 µM (active)

Question: For Cn1nc(C(=O)Nc2ccc(S(=O)(=O)N3CCCCC3)cc2)c2ccccc2c1=O, which IC50 [4] is on record?
Answer: > 50 µM (not active)

Question: For O=C1/C(=C/c2ccccc2Cl)SC(=S)N1CCCC(=O)N(CCO)c1ccccc1, which IC50 (Fatty acid synthase [2]) is on record?
Answer: 14.2 µM (active)

Question: And the IC50 (Fatty acid synthase [3])?
Answer: 9.91 µM (active)

Question: And the EC50 [5]?
Answer: 0.473 µM (active)

Question: For COc1ccc(NC(C)=O)cc1NC(=O)CN1CCN(C2c3ccccc3-c3ccccc32)CC1, which EC50 [6] is on record?
Answer: > 120 µM (not active)

Question: What about the EC50 [7] of the same molecule?
Answer: > 120 µM (not active)

Question: What about the EC50 [8] of the same molecule?
Answer: 14.7 µM (active)

Question: And the CC50 (Vero)?
Answer: 19.3 µM (active)

Question: With CCC(C)N1C(=O)/C(=C\c2cc3c4c(c2)CCCN4CCC3)C(=O)NC1=S (stereo unspecified) as the molecule, how does the CC50 (Vero) read?
Answer: > 25 µM (active)

Question: Which results are given for O=C(Cc1ccccc1)Nc1ccccc1N1CCOCC1?
Answer: AC50 (Cytochrome P450 3A4): 6.31 µM (inconclusive); AC50 (Cytochrome P450 1A2): 6.31 µM (inconclusive); AC50 (Cytochrome P450 2C19): 8.91 µM (inconclusive); AC50 (Cytochrome P450 2C9): inconclusive

Question: What does the source list for CC(C)OCCCNc1[nH]cnc2c3ccccc3nc1-2?
Answer: AC50 [9]: 5.7 µM (active); AC50 (INS1): 2.87 µM (active)

Question: With Cc1cc(C)nc(N=C(N)Nc2ccc(S(=O)(=O)O)cc2)n1 as the molecule, how does the IC50 [4] read?
Answer: < 0.4 µM (not active)

Question: With Cc1nc(NC(=O)/C=C/c2ccccc2)sc1C(=O)N(C)C as the molecule, how does the AC50 (Escherichia coli) read?
Answer: 43.6 µM (active)

Question: What does the source list for CC[n+]1ccc(/C=C/c2c[nH]c3ccccc23)cc1?
Answer: IC50 [10]: 5.16 µM (active); EC50 [11]: > 60 µM (not active); EC50 [12]: 0.839 µM (active); IC50 [13]: 12.3 µM (active); AC50 (INS1): 5.79 µM (active)

Question: For O=C(Nc1ccc(-c2nc3ncccc3o2)cc1)c1ccco1, which AC50 (Escherichia coli) is on record?
Answer: 30.5 µM (active)

Question: For O=C(NCCc1ccccc1)/C(=C\c1cccc([N+](=O)[O-])c1)NC(=O)c1ccco1, which IC50 (Fatty acid synthase [2]) is on record?
Answer: 3.04 µM (active)

Question: What about the IC50 (Fatty acid synthase [3]) of the same molecule?
Answer: 4.22 µM (active)

Question: Which IC50 [10] does the source give for O=C(/C=C/c1ccco1)OCC(=O)N1CCCCC1 here?
Answer: 19.5 µM (active)

Question: What about the IC50 [13] of the same molecule?
Answer: 35.9 µM (active)

Question: What about the IC50 [14] of the same molecule?
Answer: 5.75 µM (active)

Question: With COc1ccc(C(=O)N(C)c2c(C)n(C)n(-c3ccccc3)c2=O)cc1OC as the molecule, how does the IC50 [4] read?
Answer: 18.1 µM (not active)

Question: Which IC50 [4] does the source give for CCCC(=O)Nc1ccc(Cl)c(NC(=S)NC(=O)c2cc3ccccc3o2)c1 here?
Answer: > 50 µM (not active)

Question: Which IC50 [4] does the source give for CN(CC(=O)Nc1ccc(N2CCOCC2)cc1)CC(=O)Nc1ccc(N2CCOCC2)cc1 here?
Answer: 0.655 µM (not active)
